TGI and GI50 data for 25 compounds are collected here from PubChem BioAssay (NCI).

What all share (experiment): NCI anticancer screen, dose series, 48 h
Experiment [1] concerns OVCAR-5 ovarian.
Experiment [2] relates to MALME-3M melanoma.
Experiment [3] has as its system HL-60(TB) leukemia.
Experiment [4] has as its system HOP-62 NSCLC.
In experiment [5] the test system is RPMI-8226 leukemia.
Experiment [6] concerns K-562 leukemia.
Experiment [7] concerns HS 578T breast.
In experiment [8] the test system is T-47D breast.
Experiment [9] deals with HCC-2998 colon.

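A five-concentration, 48-hour dose response in 96-well plates underlies each endpoint, interpolated linearly between surrounding concentrations. GI50: concentration for 50% inhibition of growth. TGI is the concentration that stops growth completely.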

`CC1CCCC2(CC[N+](C)(CCC[N+](C)(C)C)CC2)C1` (centres undefined): the TGI was greater than 100 µM in experiment [1]; greater than 100 µM in experiment [2]; 43.9 µM in [3]; greater than 100 µM in experiment [4]; greater than 100 µM in experiment [5]; greater than 100 µM in experiment [6]. In addition, the TGI in [7] and in [8] was greater than 100 µM in each case.

Take `COc1ccc2c3c1OC1C(=O)C=CC4(CC2)N(C)CCC314` (centres undefined): the TGI is 92.4 µM in experiment [1]; greater than 100 µM in experiment [2]; greater than 100 µM in [4]; 45.6 µM in [5]; greater than 100 µM in experiment [6]; 27.4 µM in experiment [9]. Moreover, the values for the TGI in experiment [7] and in experiment [8] were 92.5 µM and greater than 100 µM, respectively.

On to `COP(=O)(OC)C(Cc1cn(C(C)=O)c2ccccc12)C(=O)O` (centres undefined), for which the TGI in [1], in experiment [3], in [4], in [5], in experiment [6] and in experiment [9] was greater than 100 µM throughout. The TGI in experiment [7] and in [8] was greater than 100 µM each time.

Take `O=C1CCCCC/C1=C\c1ccc([N+](=O)[O-])cc1`: the TGI was greater than 100 µM in [1]; greater than 100 µM in [2]; 94.4 µM in [3]; greater than 100 µM in experiment [4]; 97 µM in experiment [5]; greater than 100 µM in [6]. Further, the TGI was 33.1 µM in [9] and greater than 100 µM in [8].

`Cc1cc(S(=O)(=O)N/C(=C(\C#N)C(=O)c2ccc(Cl)cc2)[n+]2ccc(N(C)C)cc2)c([S-])cc1Cl`: the TGI was greater than 100 µM in [1]; 80 µM in experiment [2]; greater than 100 µM in [3]; greater than 100 µM in experiment [4]; greater than 100 µM in experiment [5]; greater than 100 µM in [6]. The TGI in experiment [9] and in experiment [8] was greater than 100 µM in each case.

Turning to `COc1ccc(N2C(=O)CC(=O)N(C(=O)COc3ccc(OCC(=O)N4C(=O)CC(=O)N(c5ccc(OC)cc5)C4=S)cc3)C2=S)cc1`, the TGI in experiment [1], in experiment [2], in experiment [5], in [6] and in experiment [9] was greater than 100 µM in each case.

On to `Cc1ccc(S(=O)(=O)n2c3ccc(Br)cc3c3nc4ccccc4nc32)cc1`, for which the TGI in experiment [1], in experiment [4], in [5], in experiment [6], in experiment [9] and in experiment [7] was greater than 100 µM throughout. The TGI in experiment [8] was greater than 100 µM.

For `CO/N=C1\CC(NC(=O)CNC(=O)OC(C)(C)C)c2ccsc21` (centres undefined), the TGI in experiment [1], in [2], in experiment [3], in [4], in experiment [9] and in experiment [7] was greater than 100 µM throughout. The compound also returned a TGI in experiment [8] greater than 100 µM.

`CN(C)c1nc(N)nc(CS)n1`: the TGI is greater than 100 µM in experiment [1]; 60.6 µM in experiment [3]; greater than 100 µM in experiment [4]; greater than 100 µM in experiment [5]; greater than 100 µM in experiment [6]; greater than 100 µM in [9]. For the same compound, the TGI in experiment [7] and in experiment [8] was greater than 100 µM throughout.

Regarding `Cc1ccc(OCC2OC(n3cnc4nc(N)nc(Cl)c43)CC2Oc2ccc(C)cc2)cc1` (centres undefined), the TGI stood at 39.7 µM in experiment [1]; 69.2 µM in [2]; 52.6 µM in experiment [4]; 56.5 µM in experiment [5]; 33.6 µM in experiment [9]; 45.6 µM in experiment [7]. For the same compound, the TGI in experiment [8] worked out at 34.7 µM.

As to `CCOc1ccc(N/C(=C(/C(Cl)=C(/Cl)N(CC)CC)[N+](=O)[O-])n2nnc3ccccc32)cc1`, the TGI in experiment [1] was greater than 100 µM; in [2] it was 39 µM; in [4], greater than 100 µM; in [5] it was greater than 100 µM; in experiment [6], greater than 100 µM; in experiment [9] it was greater than 100 µM. Also, the TGI in experiment [7] is greater than 100 µM; in [8] it was 28.9 µM.

Turning to `COc1cc2ccc(=O)oc2cc1O`, the TGI in [1] worked out at 514 µM; in [2] it was 489 µM; in experiment [3], 271 µM; in [4], 411 µM; in [5] it was 438 µM; in experiment [6], 562 µM. Moreover, the TGI in [9] was 305 µM. Moreover, the GI50 in [9] is 56.4 µM.

In the case of `COC(=O)C1CCC(=S)N1C(=O)c1ccccc1` (centres undefined), the TGI in [1], in [2], in experiment [4], in experiment [5], in [6] and in experiment [9] was greater than 100 µM throughout. For the same compound, the TGI in experiment [7] and in [8] was greater than 100 µM in each case.

As for `Cc1cccc(Nc2nn3c(=O)c4c5c(sc4nc3s2)CCCC5)c1`, the TGI in experiment [1] is greater than 100 µM; in experiment [3], greater than 100 µM; in experiment [4] it was greater than 100 µM; in [6] it was greater than 100 µM; in [7] it was greater than 100 µM; in experiment [8], 74.2 µM.

Consider `CSCCC(N)C(=O)NCCNc1ccc(NCCNC(=O)C(N)CCSC)c2c1C(=O)c1ccccc1C2=O` (centres undefined), for which the TGI was 5.61 µM in [1]; 6.6 µM in experiment [2]; 5.36 µM in [3]; 5.22 µM in experiment [4]; greater than 100 µM in [6]; 2.33 µM in [9]. Moreover, the TGI in experiment [7] was 6.85 µM; in experiment [8], 10.9 µM.

`COC(=O)c1cc(=O)[nH]c(=O)[nH]1`: the TGI in experiment [1], in experiment [2], in experiment [3], in experiment [4], in experiment [6] and in experiment [8] was greater than 100 µM throughout.

Consider `O=C1C(Cl)=C(OCCCl)C(=O)c2c(O)ccc(O)c21`, for which the TGI is 31.6 µM in experiment [1]; 7.53 µM in experiment [2]; 0.197 µM in [3]; 30.4 µM in experiment [4]; 0.993 µM in experiment [5]; 1.08 µM in experiment [6]. Further, the figures for the TGI in [9] and in experiment [8] were 35.4 µM and 4 µM, respectively.

For the compound `Nc1ccc(S(=O)(=O)c2ccc(NCN3C(=O)NC(=O)C(=O)C3=O)cc2)cc1`, the TGI in experiment [1], in experiment [2], in experiment [4], in [6], in experiment [9] and in [7] was greater than 100 µM each time. Also, the TGI in [8] was greater than 100 µM.

Regarding `Cc1cc(F)ccc1S(=O)(=O)Nc1cc(-c2c(O)ccc3ccccc23)c(O)c2ccccc12`, the GI50 in [1] was 4.55 µM; in experiment [2], 3.27 µM; in experiment [3], 2.6 µM; in experiment [4], 3.27 µM; in [5] it was 2.89 µM; in [6] it was 3.56 µM. In addition, the GI50 is 2.17 µM in experiment [9] and 2.6 µM in [7]. The TGI in [1] is 17.4 µM; in [2], 12.1 µM; in experiment [3] it was 6.19 µM; in experiment [4] it was 18.7 µM; in experiment [5], 24 µM; in experiment [6], 13 µM. Also, the results for the TGI in [9] and in experiment [7] were 4.38 µM and 10.2 µM, respectively.

As to `CSCSSC`, the TGI in experiment [1], in [2], in [4], in experiment [5], in experiment [6] and in [9] was greater than 100 µM each time. The TGI in [7] and in [8] was greater than 100 µM each time.

As to `Cc1csc(NC23CC4CC(CC(C4)C2)C3)[n+]1C(P(=O)([O-])O)P(=O)(O)O` (centres undefined), the TGI in [1], in experiment [2], in [4], in experiment [5], in experiment [6] and in experiment [9] was greater than 100 µM in each case. Further, the TGI in experiment [7] was greater than 100 µM.

As to `CCCCCCCC/C=C\CCCCCCC/C=C1\C[C@](/C=C/C(=O)OC)(CO)OC1=O`, the TGI in experiment [1] was 19.5 µM; in experiment [2], 2.86 µM; in [3], 6.14 µM; in [4], 9.18 µM; in experiment [6], 15.3 µM; in experiment [9], 13.8 µM. For the same compound, the TGI in experiment [7] is 4.69 µM; in experiment [8], 13.1 µM.

In the case of `COC(OC)[C@@H]1OC[C@H](n2cnc3c(N)ncnc32)[C@H]1O`, the TGI in experiment [1], in experiment [4], in [5], in [6], in experiment [9] and in experiment [7] was greater than 100 µM throughout. Besides, the TGI in [8] was greater than 100 µM.

In the case of `C=C[C@@H](C)[C@H](NS(=O)(=O)c1ccc(C)cc1)C(=O)OCC`, the TGI in [1] was greater than 100 µM; in experiment [2], greater than 100 µM; in experiment [3] it was greater than 100 µM; in experiment [4], greater than 100 µM; in [5], 35.5 µM; in [6], greater than 100 µM. Also, the TGI in [7] worked out at 56.4 µM.

Regarding `C[n+]1cccc2c(=O)c3ccccc3oc21`, the TGI in experiment [1], in experiment [2], in experiment [3], in experiment [4], in [6] and in experiment [9] was greater than 100 µM throughout. Further, the TGI in [7] and in [8] was greater than 100 µM throughout.
